# Measurements as given in publication PMC6014988, “Precision therapeutic targeting of human cancer cell motility” (Nature Communications, 2018).
# Like-named read-outs stand apart in the source and are kept apart here.
# Legend:
# 442 kinases = assay: KINOMEscan assay; type: binding; details: 10 µM; negatives include MKK4, p38 MAPK, RAF1
# Description: Initial assays were performed with PC3 and PC3-M cells (PC3 cell data not shown). However, as these studies yielded similar findings, subsequent screening assays utilized only PC3-M cells. In designing chemical synthetic routes, priority was given to efficacy and toxicity parameters. Additional design features were also included in our chemical […]
# toxicity parameters. These additional design features included removal of fragments that mediated genistein binding to the estrogen receptor (ER), as determined by ER-genistein 3D x-ray crystal structures (Protein Data Base IDs:1X7R and 1X7J, for crystal structures of ERα and ERβ with bound genistein, respectively). These features also included removal of chemical fragments that are considered to increase susceptibility to rapid metabolism, especially that by the cytochrome P450 (CYP) pathway. The final feature involved incorporation of chemical characteristics previously shown to be associated with effective drugs and which together generally impart more favorable pharmacologic properties, including those described by Lipinski […]
# Supplementary Note 2. […] Three […]
# different assays systems were employed.
# Kinase assay system #1. The KINOMEscan™ assay (Ambit Biosciences). This assay evaluates 442 kinases, including 400 distinct parental kinases plus mutants known to alter activity or responsiveness. […]
# [1] = tested on: human cord blood CD34+ stem cells; assay: Hematopoietic stem cell colony formation assay; type: cell-based
# Description: Fourteen-day colony formation assays were conducted as described by us[39], using human cord blood CD34+ stem cells (AllCells Inc.), using MethoCultExpress™ colony growth media (StemCell Technologies Inc.), performed in replicates of N = 2.
# 200 different kinases = assay: Kinex kinase assay system; type: biochemical, human; details: 1 and 10 μM; 10 μM interfered with readout
# Excerpt: There were two initial false positives (for a false positive rate of 0.4%), that were subsequently found to be negative in a dedicated follow up analysis. Specific and important negative findings include MKK4, p38 MAPK (α, β, γ and δ […]
# by competing for phospho-acceptor binding.
# Kinase assay system #2. The Kinex™ kinase assay system (Kinexus Proteomics Company).
# This platform uses recombinant human protein kinases expressed in an insect expression system, thus allowing an avenue for post-translational modification. Also, this platform measures inhibition of ATP binding. This platform putatively measured 200 different kinases, and we […]
# tested KBU2046 at 1 and 10 μM. […] There were two […]
# important technical issues. First, at 10 μM KBU2046 interfered with the colorimetric-based […]
# However, while considering the above factors, this screen was informative for a number of […]
# function by competing for ATP binding in the active site.
# Kinase assay system #3. KinaseProfiler™ and PhosphataseProfiler™ assay platforms (Millipore). This platform is radiometric-based (considered gold standard). It measures competition with respect to ATP for kinases and substrate protein for phosphatases. Most proteins were expressed via an insect-based system, and it evaluates a panel of 284 kinases and 20 phosphatases. There were two initial false positives, for a false positive rate of 0.7%, but both […]
# [2] = Plasma KBU2046 concentration after dosing in chow; type: in vivo; details: Balb/c athymic, mouse, oral
# Description: For determination of pharmacokinetic (PK) parameters, KBU2046 was administered by either intravenous injection or oral gavage to groups of N = 3 CD1(ICR) mice at 0 (i.e., vehicle only), 25, or 100 mg/kg. Blood was collected into EDTA by terminal cardiac puncture before drug administration (i.e., baseline) and at 5, 10, 15, 30, 45, 60, 90, 120, 180, 240, 360, 480, 960, 1440 min after administration. In separate experiments, as described above, Balb/c athymic mice were dosed with KBU2046 incorporated into chow for 35 days, after which blood was collected by terminal cardiac puncture. Resultant plasma (~250 μl/mouse) was stored at −80 °C.
# Plasma KBU2046 concentrations were measured in duplicate by liquid chromatography-tandem mass spectrometry after sample preparation by solid-phase extraction. […] The mass-to-charge ratios of the precursor-to-product ion reactions monitored were 243.5 → 125.1 for KBU2046 and 257.0 → 165.0 for the internal standard. […]
smiles,measurement,setting,value
"O=C1c2ccccc2OCC1c1ccc(F)cc1 (racemic) [KBU2046, (±)-3(4-fluorophenyl)chroman-4-one]",inhibition of kinase binding to immobilized substrate,442 kinases,completely negative
same,toxicity to human bone marrow stem cells,[1]; 14 days,not toxic
same,toxicity to stem cells,[1]; up to 40 micromolar for 14 days,no toxicity
same,inhibition of ATP binding,200 different kinases,completely negative
same,concentration at 35 days,"[2]; 150 mg/kg, mice whose metastasis were suppressed by 92%, read-out: plasma concentration",24 nM
same,concentration at 35 days,"[2]; athymic mice, KBU2046 in chow, doses that decreased metastasis, read-out: plasma concentrations",1.1 to 24 nM
